# Test results as given in patent US9604996B2 (Bayer Pharma Aktiengesellschaft, priority 2013, dated 2017).
# Biological target: T1, human adenosine A2b receptor (Homo sapiens, UniProt P29275)
# T1 construct: expressed in transfected cells; host or cells: CHO-K1 (Chinese Hamster Ovary) with CRE-luciferase reporter
# T1 sequence (P29275 1-332): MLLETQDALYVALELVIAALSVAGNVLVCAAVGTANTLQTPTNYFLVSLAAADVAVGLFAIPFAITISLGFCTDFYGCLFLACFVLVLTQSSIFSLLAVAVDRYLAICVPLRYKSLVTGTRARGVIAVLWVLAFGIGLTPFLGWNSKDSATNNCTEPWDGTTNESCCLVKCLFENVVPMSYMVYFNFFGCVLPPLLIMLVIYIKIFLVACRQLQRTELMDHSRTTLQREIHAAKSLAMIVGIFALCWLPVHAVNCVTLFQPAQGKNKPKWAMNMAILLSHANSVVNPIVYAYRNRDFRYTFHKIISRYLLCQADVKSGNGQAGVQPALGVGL
# Assay: Cellular reporter gene (CRE-luciferase) A2b receptor antagonist assay in recombinant CHO-K1 cells stimulated with NECA
# Format: cell-based
# Conditions: recombinant CHO-K1 cell line, co-incubation with EC50 concentration of NECA, 3 hours, in some cases means, rounded to two significant digits
# Outline: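 CHO-K1 cells expressing human A2b receptor with a CRE-driven firefly luciferase reporter, co-incubated with test compound and NECA at its same-day EC50 concentration. Luminescence read 3 hours after NECA addition.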
row,Structure (SMILES),IC50 [nM]
1,"Cc1c(C(=O)N2CCC(O)CC2)sc2c1c(=O)n(CCn1ccnc1)c(=O)n2CCC(F)(F)F [Example 55, 6-[(4-Hydroxypiperidin-1-yl)carbonyl]-3-[2-(1H-imidazol-1-yl)ethyl]-5-methyl-1-(3,3,3-trifluoropropyl)thieno[2,3-d]pyrimidine-2,4(1H,3H)-dione]",250
2,"CCn1c(=O)c2c(C)c(C(=O)N3CCC(O)CC3)sc2n(CCSC(F)(F)F)c1=O [Example 57, 3-Ethyl-6-[(4-hydroxypiperidin-1-yl)carbonyl]-5-methyl-1-{2-[(trifluoromethyl)sulphanyl]ethyl}thieno[2,3-d]pyrimidine-2,4(1H,3H)-dione]",130
3,"C=C(Cn1c(=O)n(CC)c(=O)c2c(C)c(C(=O)N3CCC(O)CC3)sc21)C(F)(F)F [Example 58, 3-Ethyl-6-[(4-hydroxypiperidin-1-yl)carbonyl]-5-methyl-1-[2-(trifluoromethyl)prop-2-en-1-yl]thieno[2,3-d]pyrimidine-2,4(1H,3H)-dione]",380
4,"COCCn1c(=O)c2c(C)c(C(=O)N3CCC(O)CC3)sc2n(CCC(F)(F)F)c1=O [Example 62, 6-[(4-Hydroxypiperidin-1-yl)carbonyl]-3-(2-methoxyethyl)-5-methyl-1-(3,3,3-trifluoropropyl)thieno[2,3-d]pyrimidine-2,4(1H,3H)-dione]",120
5,"Cc1c(C(=O)N2CCC(O)CC2)sc2c1c(=O)n(CCC1CC1)c(=O)n2CCC(F)(F)F [Example 63, 3-(2-Cyclopropylethyl)-6-[(4-hydroxypiperidin-1-yl)carbonyl]-5-methyl-1-(3,3,3-trifluoropropyl)thieno[2,3-d]pyrimidine-2,4(1H,3H)-dione]",210
6,"Cc1c(C(=O)N2CCC(O)CC2)sc2c1c(=O)n(CC(C)C)c(=O)n2CCC(F)(F)F [Example 64, 6-[(4-Hydroxypiperidin-1-yl)carbonyl]-3-isobutyl-5-methyl-1-(3,3,3-trifluoropropyl)thieno[2,3-d]pyrimidine-2,4(1H,3H)-dione]",45
7,"Cc1c(C(=O)N2CCC(O)(CO)CC2)sc2c1c(=O)n(CCc1ccccc1)c(=O)n2CCC(F)(F)F [Example 68, 6-{[4-Hydroxy-4-(hydroxymethyl)piperidin-1-yl]carbonyl}-5-methyl-3-(2-phenylethyl)-1-(3,3,3-trifluoropropyl)thieno[2,3-d]pyrimidine-2,4(1H,3H)-dione]",20
8,"Cc1c(C(=O)N2CCC(O)(C(F)(F)F)CC2)sc2c1c(=O)n(CCc1ccccc1)c(=O)n2CCC(F)(F)F [Example 69, 6-{[4-Hydroxy-4-(trifluoromethyl)piperidin-1-yl]carbonyl}-5-methyl-3-(2-phenylethyl)-1-(3,3,3-trifluoropropyl)thieno[2,3-d]pyrimidine-2,4(1H,3H)-dione]",60
9,"Cc1c(C(=O)N2CCC(O)(CO)CC2)sc2c1c(=O)n(CC(F)(F)c1ccccc1)c(=O)n2CCC(F)(F)F [Example 70, 3-(2,2-Difluoro-2-phenylethyl)-6-{[4-hydroxy-4-(hydroxymethyl)piperidin-1-yl]carbonyl}-5-methyl-1-(3,3,3-trifluoropropyl)thieno [2,3-d]pyrimidine-2,4(1H,3H)-dione]",28
10,"COCCn1c(=O)n(CC(F)(F)c2ccccc2)c(=O)c2c(C)c(C(=O)N3CCC(O)(CO)CC3)sc21 [Example 71, 3-(2,2-Difluoro-2-phenylethyl)-6-{[4-hydroxy-4-(hydroxymethyl)piperidin-1-yl]carbonyl}-1-(2-methoxyethyl)-5-methylthieno[2,3-d]pyrimidine-2,4(1H,3H)-dione]",420
11,"CCn1c(=O)c2c(C)c(C(=O)N3CCC(O)C(C)C3)sc2n(CCC(F)(F)F)c1=O (stereo not drawn) [Example 73, 3-Ethyl-6-[(4-hydroxy-3-methylpiperidin-1-yl)carbonyl]-5-methyl-1-(3,3,3-trifluoropropyl)thieno [2,3-d]pyrimidine-2,4(1H,3H)-dione (enantiomer pair 1)]",53
12,"CCn1c(=O)c2c(C)c(C(=O)N3CCC(O)(CO)CC3)sc2n(CCOC(F)(F)F)c1=O [Example 75, 3-Ethyl-6-{[4-hydroxy-4-(hydroxymethyl)piperidin-1-yl]carbonyl}-5-methyl-1-[2-(trifluoromethoxy)ethyl]thieno[2,3-d]pyrimidine-2,4(1H,3H)-dione]",33
13,"CCCn1c(=O)c2c(C)c(C(=O)N3CCC(C)(O)CC3)sc2n(CCC(F)(F)F)c1=O [Example 76, 6-[(4-Hydroxy-4-methylpiperidin-1-yl)carbonyl]-5-methyl-3-propyl-1-(3,3,3-trifluoropropyl)thieno[2,3-d]pyrimidine-2,4(1H,3H)-dione]",27
14,"CCCn1c(=O)c2c(C)c(C(=O)N3CCC(O)(CO)CC3)sc2n(CCC(F)(F)F)c1=O [Example 77, 6-{[4-Hydroxy-4-(hydroxymethyl)piperidin-1-yl]carbonyl}-5-methyl-3-propyl-1-(3,3,3-trifluoropropyl)thieno[2,3-d]pyrimidine-2,4(1H,3H)-dione]",75
15,"CCCn1c(=O)c2c(C)c(C(=O)N3CCC(O)(CO)CC3)sc2n(CCOC)c1=O [Example 78, 6-{[4-Hydroxy-4-(hydroxymethyl)piperidin-1-yl]carbonyl}-1-(2-methoxyethyl)-5-methyl-3-propylthieno[2,3-d]pyrimidine-2,4(1H,3H)-dione]",350
16,"CCCn1c(=O)c2c(C)c(C(=O)N3CCC(O)(CO)CC3)sc2n(CCOC(F)(F)F)c1=O [Example 80, 6-{[4-Hydroxy-4-(hydroxymethyl)piperidin-1-yl]carbonyl}-5-methyl-3-propyl-1-[2-(trifluoromethoxy)ethyl]thieno[2,3-d]pyrimidine-2,4(1H,3H)-dione]",27
17,"CCn1c(=O)c2c(C(F)(F)F)c(C(=O)N3CCC(C)(O)CC3)sc2n(CCC(F)(F)F)c1=O [Example 82, 3-Ethyl-6-[(4-hydroxy-4-methylpiperidin-1-yl)carbonyl]-5-(trifluoromethyl)-1-(3,3,3-trifluoropropyl)thieno[2,3-d]pyrimidine-2,4(1H,3H)-dione]",23
18,"CCn1c(=O)c2c(C(F)(F)F)c(C(=O)N3CCC(O)(CO)CC3)sc2n(CCC(F)(F)F)c1=O [Example 83, 3-Ethyl-6-{[4-hydroxy-4-(hydroxymethyl)piperidin-1-yl]carbonyl}-5-(trifluoromethyl)-1-(3,3,3-trifluoropropyl)thieno[2,3-d]pyrimidine-2,4(1H,3H)-dione]",56

# Stronger by IC50, values ahead:
row,IC50 [nM],Structure (SMILES)
1,19,"CCn1c(=O)c2c(C)c(C(=O)N3CCC(O)CC3)sc2n(CCOC(F)(F)F)c1=O [Example 56, 3-Ethyl-6-[(4-hydroxypiperidin-1-yl)carbonyl]-5-methyl-1-[2-(trifluoromethoxy)ethyl]thieno[2,3-d]pyrimidine-2,4(1H,3H)-dione]"
2,12,"CCCn1c(=O)c2c(C)c(C(=O)N3CCC(O)CC3)sc2n(CCOC(F)(F)F)c1=O [Example 60, 6-[(4-Hydroxypiperidin-1-yl)carbonyl]-5-methyl-3-propyl-1-[2-(trifluoromethoxy)ethyl]thieno[2,3-d]pyrimidine-2,4(1H,3H)-dione]"
3,17,"C#CCCn1c(=O)c2c(C)c(C(=O)N3CCC(O)CC3)sc2n(CCC(F)(F)F)c1=O [Example 61, 3-(But-3-yn-1-yl)-6-[(4-hydroxypiperidin-1-yl)carbonyl]-5-methyl-1-(3,3,3-trifluoropropyl)thieno[2,3-d]pyrimidine-2,4(1H,3H)-dione]"
4,13,"Cc1c(C(=O)N2CCC(C)(O)CC2)sc2c1c(=O)n(CCc1ccccc1)c(=O)n2CCC(F)(F)F [Example 67, 6-[(4-Hydroxy-4-methylpiperidin-1-yl)carbonyl]-5-methyl-3-(2-phenylethyl)-1-(3,3,3-trifluoropropyl)thieno[2,3-d]pyrimidine-2,4(1H,3H)-dione]"
5,17,"CCn1c(=O)c2c(C)c(C(=O)N3CC4CCCC(C3)C4O)sc2n(CCC(F)(F)F)c1=O (stereo not drawn) [Example 72, 3-Ethyl-6-[(9-hydroxy-3-azabicyclo[3.3.1]non-3-yl)carbonyl]-5-methyl-1-(3,3,3-trifluoropropyl)thieno[2,3-d]pyrimidine-2,4(1H,3H)-dione (α-epimer)]"
6,8,"CCCn1c(=O)c2c(C)c(C(=O)N3CCC(C)(O)CC3)sc2n(CCOC(F)(F)F)c1=O [Example 79, 6-[(4-Hydroxy-4-methylpiperidin-1-yl)carbonyl]-5-methyl-3-propyl-1-[2-(trifluoromethoxy)ethyl]thieno[2,3-d]pyrimidine-2,4(1H,3H)-dione]"
7,19,"O=C(c1sc2c(c1C(F)F)c(=O)n(CCc1ccccc1)c(=O)n2CCC(F)(F)F)N1CCC(O)CC1 [Example 84, 5-(Difluoromethyl)-6-[(4-hydroxypiperidin-1-yl)carbonyl]-3-(2-phenylethyl)-1-(3,3,3-trifluoropropyl)thieno[2,3-d]pyrimidine-2,4(1H,3H)-dione]"
8,9.5,"CC1(O)CCN(C(=O)c2sc3c(c2C(F)F)c(=O)n(CCc2ccccc2)c(=O)n3CCC(F)(F)F)CC1 [Example 85, 5-(Difluoromethyl)-6-[(4-hydroxy-4-methylpiperidin-1-yl)carbonyl]-3-(2-phenylethyl)-1-(3,3,3-trifluoropropyl)thieno[2,3-d]pyrimidine-2,4(1H,3H)-dione]"
9,12,"O=C(c1sc2c(c1C(F)F)c(=O)n(CCc1ccccc1)c(=O)n2CCC(F)(F)F)N1CCC(O)(CO)CC1 [Example 86, 5-(Difluoromethyl)-6-{[4-hydroxy-4-(hydroxymethyl)piperidin-1-yl]carbonyl}-3-(2-phenylethyl)-1-(3,3,3-trifluoropropyl)thieno[2,3-d]pyrimidine-2,4(1H,3H)-dione]"
